Experimental data as given in US8506943B2, “Cyclohexylethyl carboxylic acid ester compositions and method for using the same for reducing malodors” (International Flavors & Fragrances Inc., priority 2009, dated 2013).
Marks after values point to notes of the source that are not given here.

Key:
Design in all cases: species or system human
[1] = Mold/mildew malodor model, number of panelists ranking more intense (Example VI); details: for rank of the odor intensity (number of panelists who ranked the more intense): Mold/Mildew, S vs R
Procedure: (§1) Testing Procedure: A cyclohexylethyl carboxylic acid ester compound (1 g, a racemate or enantiomer) and IVA (1 g, 1-2%) were placed in two 1-ounce jars separately, which were both placed in a 1-gallon jar and capped for 24 hours to allow for the headspace saturation prior to the test. Each set of three test samples (i.e., three 1-gallone jars containing IVA and, respectively, a racemate and each of the two enantiomers) was presented in a blind, random order to internal panelists (consisting of trained females having a mean age of 40 years).
(§2) The panelists were instructed to take the steps of i) uncap a first jar; ii) place their noses immediately above the opening; iii) take short sniffs for 2-3 seconds; iv) cap the jar; v) repeat the steps for the other two jars in the same set; and vi) provide a rank of the odor intensity for a set of three jars using the intensity scales of 1 to 5, where 1 represents the “Least Intense” and 5 represents the “Most Intense”. The ranks of the odor intensity were then statistically analyzed using SPSS 15.0 for Windows. Freidman's non-parametric tests were used to analyze the ranked intensity for each test sample. Post hoc pair-wise comparisons were only conducted when the overall Chi-square omnibus test was statistically significant (p<0.05).
(§3) Establishment of Mold/Mildew and Bathroom Malodor Models: In addition to the sweat model established as above, the malodor models of mold/mildew and bathroom were prepared based on applicant's proprietary formulations for assessing the effectiveness of mold/mildew and bathroom malodor counteractants.
(§4) Testing Procedure: Test samples were prepared the same as above. The same procedure was carried out except the ranks of the odor intensity were recorded based on the numbers of the panelists who ranked the more intense.

[2] = Bathroom malodor model, number of panelists ranking more intense (Example VI); details: S vs R
Procedure: as §1, §2, §3, §4

[3] = Sweat malodor model (IVA), panel mean rank of odor intensity (Example V); details: for mean rank of the odor intensity: 1 = least intense, 5 = most intense, set of racemate, S and R
Source text: (§5) Establishment of a Model of Sweat Malodor: It is known that the perspirative malodors of human body, particularly sweat, are associated with the production of several unpleasant smelling organic acids, particularly isovaleric acid (“IVA”). The commercial sample of this malodorous material (commercially available at Sigma-Aldrich Inc.) was thus used as a model compound to assess the effectiveness of sweat malodor counteractants.
(§6) Preparation of Test Samples: The VEILEX™ mixtures (VEILEX™ I, VEILEX™ II, and VEILEX™ III, commercially available from IFF) and the enantiomeric compounds of the present invention (all with optical purity over 80% ee, synthesized as above) were evaluated for sweat malodor counteracting effectiveness. Different concentrations of VEILEX™ mixtures and their enantiomeric counterparts were used based on the priori usage levels. Additionally, the overall intensity of 1-cyclohexylethanol (1% in diethyl phthalate) was noticeably greater than the other two compounds, a higher concentration of IVA (2% in diethyl phthalate) was therefore used for the test.
as §1, §2

[4] = Sweat malodor model (IVA), number of panelists ranking more intense (Example VI); details: for rank of the odor intensity (number of panelists who ranked the more intense): S vs R
Source text: as §5, §6, §1, §2, §4

[5] = Sweat malodor (1% IVA) intensity on Labeled Magnitude Scale, concentration series (Example VIII); details: for Malodor Intensity: LMS mean, 0-100; for % MOR (percent malodor reduction): vs Malodor Alone
Procedure: Determination of an Effective Concentration of (1S)-1-cyclohexylethyl acetate: To further identify an effective concentration of (1S)-1-cyclohexylethyl acetate in counteracting sweat malodor, (1S)-1-cyclohexylethyl acetate was prepared at a series of concentrations, ranging from 0.05% to 5% in diethyl phthalate, with corresponding vapor phase concentrations ranging from about 1.5 to about 150 μg per liter of air space.
Testing Procedure: The same procedures were carried out as in Examples V and VII to evaluate the effectiveness of different concentrations of (1S)-1-cyclohexylethyl acetate (“VEILEX™ 2S”) in counteracting sweat malodor modeled by 1% of IVA.

[6] = Mold/mildew malodor intensity on Labeled Magnitude Scale, concentration series (Example VII); details: for Malodor Intensity: LMS mean, 0-100; for % MOR (percent malodor reduction): vs Malodor Alone
Procedure: Determination of an Effective Concentration of (1R)-1-cyclohexylethyl butyrate: To further identify an effective concentration of (1R)-1-cyclohexylethyl butyrate in counteracting mold/mildew malodor, (1R)-1-cyclohexylethyl butyrate was prepared at a series of concentrations, ranging from 0.05% to 10% in diethyl phthalate, with corresponding vapor phase concentrations ranging from about 0.3 to about 60 μg per liter of air space.
Testing Procedure: The same procedure was carried out as in Example VI to evaluate the effectiveness of different concentrations of (1R)-1-cyclohexylethyl butyrate (“VEILEX™ 1R”) in counteracting mold/mildew malodor. The odor intensity was rated using Labeled Magnitude Scale (LMS) [Green, et al., Chemical Senses, 21(3), June 1996, 323-334]. Mean (“Malodor Intensity”) and standard error of the mean (“SE”, ±) were obtained, where 0 represents “No Sensation” and 100 represents “The Strongest Imaginable Malodor Sensation”. Percent malodor reduction (“% MOR”) represents the reduction in mean malodor intensity of the negative control (Malodor Alone) in the presence of an enantiomeric cyclohexylethyl carboxylic acid ester.

[7] = compared with enantiomeric counterpart

## CCCC(=O)O[C@@H](C)C1CCCCC1 [1-cyclohexylethyl butyrate S, (S)-1-cyclohexylethyl butyrate]
[1]; test compound 5%
  rank of the odor intensity (number of panelists who ranked the more intense): 20
[2]; test compound 5%
  rank of the odor intensity (number of panelists who ranked the more intense): 12
[3]; IVA (1%), test compound 5%
  mean rank of the odor intensity: 2.08
[4]; IVA (1%), test compound 5%
  rank of the odor intensity (number of panelists who ranked the more intense): 8

## C[C@@H](O)C1CCCCC1 [1-cyclohexylethanol R, (R)-1-cyclohexylethanol]
[1]; test compound 1%
  rank of the odor intensity (number of panelists who ranked the more intense): 13
[2]; test compound 1%
  rank of the odor intensity (number of panelists who ranked the more intense): 13
[3]; IVA (2%), test compound 1%
  mean rank of the odor intensity: 1.50
[4]; IVA (2%), test compound 1%
  rank of the odor intensity (number of panelists who ranked the more intense): 5

## CC(=O)O[C@@H](C)C1CCCCC1 [1-cyclohexylethyl acetate S, (1S)-1-cyclohexylethyl acetate]
[1]; test compound 2%
  rank of the odor intensity (number of panelists who ranked the more intense): 14
[2]; test compound 2%
  rank of the odor intensity (number of panelists who ranked the more intense): 13
[5]; 0.05%, 1.5 μg/L
  Malodor Intensity: 17.98
  % MOR (percent malodor reduction): 23%
[5]; 0.1%, 3 μg/L
  Malodor Intensity: 18.29
  % MOR (percent malodor reduction): 23%
[5]; 0.5%, 15 μg/L
  Malodor Intensity: 14.8
  % MOR (percent malodor reduction): 37%
[5]; 1%, 30 μg/L
  Malodor Intensity: 14.15
  % MOR (percent malodor reduction): 42%
[5]; 5%, 150 μg/L
  Malodor Intensity: 8.35
  % MOR (percent malodor reduction): 55%
[3]; IVA (1%), test compound 2%
  mean rank of the odor intensity: 1.38*
[3]; compared with racemate and R enantiomer
  effectiveness in counteracting sweat malodor (in words): particularly effective in counteracting sweat malodor
[4]; IVA (1%), test compound 2%
  rank of the odor intensity (number of panelists who ranked the more intense): 2*
[4]; [7]
  effectiveness in counteracting sweat malodor (in words): significantly and specifically effective in counteracting sweat malodor

## CC(O)C1CCCCC1 (racemic) [1-cyclohexylethanol M, 1-cyclohexylethanol, reference compound]
[3]; IVA (2%), test compound 1%
  mean rank of the odor intensity: 2.58

## CC(=O)O[C@H](C)C1CCCCC1 [1-cyclohexylethyl acetate R, (R)-1-cyclohexylethyl acetate]
[1]; test compound 2%
  rank of the odor intensity (number of panelists who ranked the more intense): 11
[2]; test compound 2%
  rank of the odor intensity (number of panelists who ranked the more intense): 12
[3]; IVA (1%), test compound 2%
  mean rank of the odor intensity: 2.46
[4]; IVA (1%), test compound 2%
  rank of the odor intensity (number of panelists who ranked the more intense): 11

## CCCC(=O)OC(C)C1CCCCC1 (racemic) [1-cyclohexylethyl butyrate M, 1-cyclohexylethyl butyrate, reference compound]
[3]; IVA (1%), test compound 5%
  mean rank of the odor intensity: 2.50

## CC(=O)OC(C)C1CCCCC1 (racemic) [1-cyclohexylethyl acetate M, 1-cyclohexylethyl acetate, reference compound]
[3]; IVA (1%), test compound 2%
  mean rank of the odor intensity: 2.15

## C[C@H](O)C1CCCCC1 [1-cyclohexylethanol S, (S)-1-cyclohexylethanol]
[1]; test compound 1%
  rank of the odor intensity (number of panelists who ranked the more intense): 12
[2]; test compound 1%
  rank of the odor intensity (number of panelists who ranked the more intense): 12
[3]; IVA (2%), test compound 1%
  mean rank of the odor intensity: 1.92
[4]; IVA (2%), test compound 1%
  rank of the odor intensity (number of panelists who ranked the more intense): 7

## CCCC(=O)O[C@H](C)C1CCCCC1 [1-cyclohexylethyl butyrate R, (1R)-1-cyclohexylethyl butyrate]
[1]; test compound 5%
  rank of the odor intensity (number of panelists who ranked the more intense): 5*
[1]; [7]
  effectiveness in counteracting mold/mildew malodor (in words): significantly and specifically effective in counteracting mold/mildew malodor
[2]; test compound 5%
  rank of the odor intensity (number of panelists who ranked the more intense): 13
[6]; 0.05%, 0.3 μg/L
  Malodor Intensity: 13.70
  % MOR (percent malodor reduction): 13%
[6]; 0.1%, 0.6 μg/L
  Malodor Intensity: 11.86
  % MOR (percent malodor reduction): 24%
[6]; 0.5%, 3 μg/L
  Malodor Intensity: 12.03
  % MOR (percent malodor reduction): 23%
[6]; 1%, 6 μg/L
  Malodor Intensity: 11.66
  % MOR (percent malodor reduction): 22%
[6]; 10%, 60 μg/L
  Malodor Intensity: 8.25
  % MOR (percent malodor reduction): 47%
[3]; IVA (1%), test compound 5%
  mean rank of the odor intensity: 1.42
[4]; IVA (1%), test compound 5%
  rank of the odor intensity (number of panelists who ranked the more intense): 4
